Patent USRE47475E1, “Selective agents for pain suppression” (WiSys Technology Foundation, Inc., priority 2002, dated 2019)
Read-outs that look alike come from different tables or passages of the source.

How the values were obtained:
rhesus monkeys = experiment: conflict model of anxiolytic activity which also measures sedation; format: in vivo; conditions: for anxiolytic effect (conflict model): intravenously in propylene glycol/water
Method: The data in FIGS. 21A-21F reflect the ability of the compounds or drugs to exert an anxioyic effect in rhesus monkeys (J. Rowlett, J. M. Cook et al., unpublished results) when given intravenously in propylene glycol/water solution. This is the conflict model of anxiolytic activity which also measures sedation. […] In FIG. 21B, SH-053-2′F (JY-XHE-053) is anxiolytic at a dose of greater than 0.13 mg/kg, but exerts only some slight sedation at doses greater than 1.2 mg/kg (responses decrease). In FIG. 21C it is clear the S-enantiomer of SH-053-2′F—S—CH3 is anxiolytic with no sedation up to 10-18 mg/kg, which is the highest dose tested.

[1] = tested on: neuropathic pain after CCI of the sciatic nerve; experiment: chronic constriction injury (CCI) model, mechanical sensitization (von Frey filaments); format: in vivo, mice; conditions: for analgesic effects in the chronic constriction injury model of neuropathic pain: mouse, in vivo
Method: In addition, the pro- or antinociceptive effects of the compounds of the present invention are analyzed in the chronic constriction injury (CCI) model. The GABAA receptor subunit selective test compounds of the present invention are analysed in the CCI model in 7-8-week-old C57BL/6 mice. See Bennett, G. J. & Xie, Y. K. A peripheral mononeuropathy in rat that produces disorders of pain sensation like those seen in man. […] Seven to eight week old mice are anesthetized with isofluran. Unilateral constriction injury of the left sciatic nerve just proximal to the trifurcation is performed with three loose ligatures. In sham-operated animals the sciatic nerve is exposed and the connective tissue is freed, but no ligatures are applied. […] Heat hyperalgesia, cold allodynia and mechanical sensitization are assessed 7-9 days after surgery. Mechanical sensitivity is assessed with electronic von Frey filaments (IITC).
Pain studies—Neuropathic pain: HZ166 and gabapentin were analyzed in the chronic constriction injury (CCI) model. Unilateral constriction injury of the left sciatic nerve just proximal to the trifurcation was performed as described previously (Bennett and Xie, 1988). Anesthesia was induced and maintained by 2% isoflurane, combined with oxygen (30%). The sciatic nerve was exposed at the mid-thigh level proximal to the sciatic trifurcation by blunt dissection through the biceps femoris muscle. […] of nerve were freed of adhering tissue and three chromic gut ligatures (4/0) (Ethicon) were loosely put around the nerve with about 1 mm spacing. The ligatures were tied until they elicited a brief twitch in the hindlimb. The surgical wound was closed in layers. Heat hyperalgesia and mechanical sensitization were assessed 7-16 days after surgery.
Pain Studies—Mechanical sensitization: Mechanical sensitivity was assessed with dynamic von Frey filaments (IITC, Woodland Hills, Calif.). 4-5 measurements were made for each time point and animal and averaged. Measurements of paw withdrawal thresholds of the injured paw and of the contralateral paw were made alternately.
Statistical Analysis: For all different doses and vehicle, baseline paw withdrawal thresholds/latencies on day 7 after nerve ligation or on day 2 after zymosan A injection were subtracted from all later withdrawal thresholds and the area under the curve (AUC) was calculated. Drug effects were expressed as percent maximum possible effect (MPE) calculated from comparisons of paw withdrawal latencies or thresholds obtained prior to surgery or inflammation and before and after drug treatment. […] Unless otherwise indicated, statistical comparisons were made with one-way analysis of variance (ANOVA) followed by Scheffe's post hoc test. P values<0.05 were considered significant.

[2] = molecular target: T1, GABAA/α5 (α5β3γ2 GABAA receptor) (Homo sapiens, UniProt P18507+P31644); experiment: competitive binding assay with [3H]flunitrazepam
T1 construct: expressed in transfected cells
Method: (§1) Membranes were harvested with a Brandel cell harvester followed by three ice-cold washes onto polyethyleneimine-pretreated (0.3%) Whatman GF/C filters. Filters were dried overnight and then soaked in Ecoscint, a liquid scintillation cocktail (National Diagnostics; Atlanta, Ga.). Bound radioactivity was quantified by liquid scintillation counting. Membrane protein concentrations were determined using an assay kit from Bio-Rad (Hercules, Calif.) with bovine serum albumin as the standard.
as §1, with “The GABAA subunit selectivity of several compounds prepared as described above were determined using competitive binding assays. […] Membranes” for “Membranes”

[3] = molecular target: T2, GABAA/α2 (α2β3γ2 GABAA receptor) (Homo sapiens, UniProt P18507+P47869); experiment: competitive binding assay with [3H]flunitrazepam
T2 construct: expressed in transfected cells
Method: as §1
as §1, with “The GABAA subunit selectivity of several compounds prepared as described above were determined using competitive binding assays. […] Membranes” for “Membranes”

[4] = molecular target: T3, GABAA/α1 (α1β3γ2 GABAA receptor) (Homo sapiens, UniProt P14867+P18507); experiment: competitive binding assay with [3H]flunitrazepam
T3 construct: expressed in transfected cells
Method: as §1
as §1, with “The GABAA subunit selectivity of several compounds prepared as described above were determined using competitive binding assays. […] Membranes” for “Membranes”

[5] = molecular target: T4, GABAA/α3 (α3β3γ2 GABAA receptor) (Homo sapiens, UniProt P18507+P34903); experiment: competitive binding assay with [3H]flunitrazepam
T4 construct: expressed in transfected cells
Method: as §1
as §1, with “The GABAA subunit selectivity of several compounds prepared as described above were determined using competitive binding assays. […] Membranes” for “Membranes”

[6] = tested on: Formalin Pain (mouse, i.p.); experiment: T22 formalin test (chemically induced pain); format: in vivo
Method: This elicits a distinct bi-phasic behavioral profile in response to the formalin injection characterized by licking of the affected paw, and the number of licks is measured as a proxy for perceived pain. The first (acute) phase is thought to correspond to the direct stimulation of peripheral fibers while the second (inflammatory) phase is caused by the release of inflammatory mediators from the damaged tissue and nerve endings. Thus, this model is ideally suited for efficacy of an investigational AED against the acute and chronic hyper-responsive neuronal discharges following activation of peripheral nerve fibers.
The results of the formalin test are given both as raw data (“Response”) and in an aggregate, analyzed form (“Analysis”). In the Response section, each Trial involves sixteen animals, eight controls given an i.p. injection of vehicle and eight given the compound at a specified dose. Thus, for multiple doses of the compound, there will also be multiple control groups. The data recorded for each animal is the amount of time(s) spent licking the affected hind paw in a two minute period. These two minute periods occur at five minute intervals and continue for 45 minutes. […] From this plot, we can then determine the area under the curve (AUC) for each animal during both the acute and inflammatory stages. The AUC for each phase is shown in the analysis section of the data sheet for both control and drug-treated animals The AUC for each drug-treated animal is compared to the average result from the control group, yielding an average percent of control (reported with the SEM and p value).

[7] = tested on: Sciatic Ligation neuropathic pain; experiment: T23 partial ligation of the sciatic nerve (mechanical allodynia); format: in vivo, rats; conditions: dose 35.5 (HZ-166), 18 (JY-XHE-053), 1 (XLI-JY-DMH) mg/kg; TPE 2 hr
Method: Neuropathic pain. The pro- or antinociceptive effects of the compounds of the present invention are analyzed in two manners. […] Sterile technique will be used throughout the surgery. The upper thigh will be shaved and wiped off with ethanol and betadine. A small incision will then be made in the skin. The underlying muscle of the upper thigh will be separated and the sciatic nerve exposed. The nerve is separated from the surrounding connective tissue and slightly elevated by a pair of fine, curved forceps. Approximately ⅓ to ½ of the nerve is tied off by passing a needle (7.0) and nylon suture through the nerve. The muscle and skin incision are closed off separately with 5.0 suture and the animals kept warm until they have recovered from the anesthesia. This procedure is routinely done on the right side (ipsilateral) while a sham surgery is performed on the left hind leg (contralateral). The latter involves a similar procedure with the exception that the sciatic nerve on this side is only exposed. The rats will be closely monitored daily for the development of infection or untoward effects of the surgery in which case the animals will be immediately euthanized
After an appropriate time for recovery (7 days) the animals will be tested for the development of mechanical allodynia (abnormal response to a non-noxious stimulus). The animals are each put in a bottomless plexiglass box placed on a wire mesh (¼″) platform. After 30-60 minutes in which to acclimate, a baseline mechanical sensitivity is determined. This procedure is done by applying a series of calibrated Von Frey fibres perpendicularly to the plantar surface of each hind paw and holding it there for about 6 secs with enough force to slightly bend the fibre. After a positive response (withdrawal of the foot) is noted a weaker fibre is applied. This is repeated until a 50% threshold for withdrawal can be determined
The allodynic threshold is then redetermined after intraperitoneal administration of an investigational AED. Testing will be conducted at the time-to-peak effect of the AED as determined in the acute seizure model.

With `CCOC(=O)c1ncn2c1CN=C(c1ccccc1)c1cc(Cl)ccc1-2` the melting point was 174 to 175 °C.
Compound `CNC1=Nc2ccc(C#C[Si](C)(C)C)cc2C(c2ccccc2)=NC1` has a melting point of 210 to 211 °C.
In the case of `C[Si](C)(C)C#Cc1ccc2c(c1)C(c1ccccn1)=NCC(=O)N2`, the melting point is reported as 242 to 243 °C.
Compound `CN1C(=O)CN=C(c2ccccn2)c2cc(C#C[Si](C)(C)C)ccc21` has a melting point of 194 to 195 °C.
Work on `C#Cc1ccc2c(c1)C(c1ccccn1)=NCC(=O)N2C` yielded a melting point of 190 to 191 °C.
Work on `CCOC(=O)c1ncn2c1CN=C(c1ccccn1)c1cc(C#C[Si](C)(C)C)ccc1-2` yielded a melting point of 205 to 206 °C.
In the case of `O=C(OCC(Cl)(Cl)Cl)c1ncn2c1CN=C(c1ccccc1)c1cc(Br)ccc1-2`, the melting point is reported as 113 to 116 °C.
Compound `C[Si](C)(C)C#Cc1ccc2c(c1)C(c1ccccc1)=NCc1c(C(=O)OCC(F)(F)F)ncn1-2` has a melting point of 107 to 110 °C.
For `C#Cc1ccc2c(c1)C(c1ccccc1F)=NC(C)c1c(C(=O)OCC)ncn1-2` (single isomer, unassigned) [SH-053-2′F-R-CH3, 8-Ethynyl-6-(2-fluorophenyl)-4-methyl-4H-2,5,10b-triaza-benzo[e]azulene-3-carboxylic acid ethyl ester], the “sedative activity (conflict model)” value (rhesus monkeys; intravenously) was “not sedating” and the “anxiolytic effect (conflict model)” value (rhesus monkeys) was “only a weak anxiolytic”.
In the case of `C#Cc1ccc2c(c1)C(c1ccccc1F)=NC(C)c1c(C(=O)OCC)ncn1-2` (single isomer, unassigned) [SH-053-2′F-S-CH3, 8-Ethynyl-6-(2-fluorophenyl)-4-methyl-4H-2,5,10b-triazabenzo[e]azulene-3-carboxylic acid ethyl ester], the “no sedation up to dose” value (rhesus monkeys; conflict model) is reported as 10 to 18 mg/kg and the “anxiolytic effect (conflict model)” value (rhesus monkeys) is reported as “anxiolytic”.
Work on `C#Cc1ccc2c(c1)C(c1ccccc1)=NCc1c(C(=O)OCC(F)(F)F)ncn1-2` [DM-II-20, Trifluoroethyl 8-acetylenyl-6-phenyl-4H-benzo[f]imidazo[1,5-a][1,4]diaze-pine-3-carboxylate] yielded a melting point of 188 to 190 °C.
With `CCOC(=O)c1ncn2c1CN(C)C(=O)c1cc(F)ccc1-2` [Flumazenil, flumazenil, reference compound] the “AUC of mechanical PWT, HZ166 followed by flumazenil” value ([1]; HZ166 16 mg/kg i.p., flumazenil 10 mg/kg i.p. 45 min later, n=6) was 0.54 ± 0.25 g·h and the “effect on the antihyperalgesic effect of HZ166” value ([1]; flumazenil 10 mg/kg i.p., HZ166 16 mg/kg) was “almost completely reversed”.
`C#Cc1ccc2c(c1)C(c1cccs1)=NCc1c(C(=O)OCC)ncn1-2` [JC-221, Ethyl 8-acetyleno-6-(2′-thienyl)-4H-benzo[f]imidazo[1,5-a][1,4]diazepine-3-carboxylate] gave a Ki ([2]; Binding Affinity at GABAA/α5, Table 3) of 14.5 nM.
In the case of `C#Cc1ccc2c(c1)C(c1ccccc1F)=NCc1c(C(=O)OCC)ncn1-2` [JY-XHE-053, 8-Acetyleno-6-(2′-fluorophenyl)-4H-benzo[f]imidazo[1,5-a][1,4]diazepine-3-carboxylate], the “analgesic effect, mechanical sensitivity (von Frey) in CCI model” value ([1]; 8 mg/kg and 30 mg/kg i.p.) is reported as “significant analgesic effect”, the “analgesic effects in the chronic constriction injury model of neuropathic pain” value [1] is reported as “analgesic effects” and the Ki ([3]; Table 3, read-out: Binding Affinity at GABAA/α2) is reported as 12.3 nM. The Ki ([4]; Table 3, read-out: Binding Affinity at GABAA/α1) was 22 nM, the Ki ([2]; Table 3, read-out: Binding Affinity at GABAA/α5) was 0.671 nM and the Ki ([5]; Table 3, read-out: Binding Affinity at GABAA/α3) was 34.9 nM. For the same compound, the “protection at the acute phase of chemically induced pain” value ([6]; formalin test, acute phase) was “insignificant”, the “Change (% of Control) ± SEM, T22 Formalin Pain, Acute” value ([6]; mouse, i.p., acute phase, dose 16 (HZ-166), 10 (JY-XHE-053), 1 (XLI-JY-DMH) mg/kg) was 98.41 % of Control and the “Change (% of Control) ± SEM, T22 Formalin Pain, inflammatory” value ([6]; mouse, i.p., inflammatory phase, dose 16 (HZ-166), 10 (JY-XHE-053), 1 (XLI-JY-DMH) mg/kg) was 84.58 % of Control. For the same compound, the “dose at which anxiolytic” value (rhesus monkeys; intravenously) was “greater than 0.13 mg/kg”, the “Change (% of Control) ± SEM, T23 Sciatic Ligation” value [7] was 132 ± 7 % of Control and the “Significance, T23 Sciatic Ligation” value [7] was “yes”.
Work on `C#Cc1ccc2c(c1)C(c1ccccn1)=NC(C)c1c(C(=O)OCC)ncn1-2` (stereo not drawn) [SH-053-2′N-S-CH3, 8-Ethynyl-4-methyl-6-pyridin-2-yl-4H-2,5,10b-triaza-benzo[e]azulene-3-carboxylic acid ethyl ester] yielded a Ki ([3]; Binding Affinity at GABAA/α2, Table 4, stereoisomers) of 2330 nM, a Ki ([4]; Binding Affinity at GABAA/α1, Table 4, stereoisomers) of 6950 nM and a Ki ([2]; Binding Affinity at GABAA/α5, Table 4, stereoisomers) of 744 nM. The Ki ([5]; Binding Affinity at GABAA/α3, Table 4, stereoisomers) was 2650 nM.
In the case of `C#Cc1ccc2c(c1)C(c1ccccc1)=NCc1c(C(=O)OCC)ncn1-2` [XHE-II-053, Ethyl 8-acetylenyl-6-phenyl-4H-benzo[f]imidazo[1,5-a][1,4]diazepine-3-carboxylate], the “analgesic effect, mechanical sensitivity (von Frey) in CCI model” value ([1]; 10 mg/kg i.p.) is reported as “significantly analgesic”, the “analgesic effects in the chronic constriction injury model of neuropathic pain” value [1] is reported as “analgesic effects” and the “sedative activity (conflict model)” value (rhesus monkeys; intravenously) is reported as “no sedative activity”. For the same compound, the “anxiolytic effect (conflict model)” value (rhesus monkeys) was “anxiolytic”.
